Among the data in patent US20260355196A1, “INHIBITORS AND DEGRADERS OF PIP4K PROTEIN” (Larkspur Biosciences, Inc., priority 2023, published 2026) are DC50 values, retold here.

One experiment addresses T1, PIP4K2C (Homo sapiens, UniProt Q8TBX8).
T1 sequence (Q8TBX8 1-421): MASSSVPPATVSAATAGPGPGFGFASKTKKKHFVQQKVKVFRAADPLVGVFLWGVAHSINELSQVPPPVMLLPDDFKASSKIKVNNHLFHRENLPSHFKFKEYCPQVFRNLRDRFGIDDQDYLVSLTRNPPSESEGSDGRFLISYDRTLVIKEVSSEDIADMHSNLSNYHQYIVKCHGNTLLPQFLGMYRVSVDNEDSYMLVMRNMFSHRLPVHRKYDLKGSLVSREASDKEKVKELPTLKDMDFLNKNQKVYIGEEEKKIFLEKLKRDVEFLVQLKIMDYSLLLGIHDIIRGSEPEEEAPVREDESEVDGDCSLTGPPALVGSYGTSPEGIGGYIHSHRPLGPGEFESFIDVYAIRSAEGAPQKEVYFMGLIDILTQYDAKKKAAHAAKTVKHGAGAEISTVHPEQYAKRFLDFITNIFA
As to the kind of experiment: HiBiT PIP4K2C degradation assay in MOLT-4 cells (endogenous PIP4K2C C-terminally tagged with HiBiT). The experiment is classed as cell-based. Set-up: untagged in primary human PBMCs and monocyte-derived dendritic cells. The note with it: 6 hours of incubation time, rather than 24 hours; MOLT-4, top concentration 10 micromolar; read-out: HiBIT-degradation MOLT4 PIP4k2C DC50 (6 hours, marked *). The method in brief: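 MOLT-4 cells with endogenous PIP4K2C C-terminally HiBiT-tagged by CRISPR were treated with a 10-point, 3-fold dilution series from 10 micromolar, in duplicate, for 24 h or 6 h at 37 C. Remaining tagged protein read by HiBiT lytic luminescence; DC50 from Hill-equation fit.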
By DC50 is commonly meant the concentration at which degradation of the target reaches its halfway point. In the case of `O=C1CCC(Nc2ccc(N3CCC(N4CCC(NC(=O)[C@H]5CC[C@H](Nc6ncc(F)c(-c7cccc(N8CCCCC8=O)c7)n6)CC5)CC4)CC3)c(F)c2)C(=O)N1` (stereo partly drawn) [Compound 521, trans-N-(1′-(4-((2,6-dioxopiperidin-3-yl)amino)-2-fluorophenyl)-[1,4′-bipiperidin]-4-yl)-4-((5-fluoro-4-(3-(2-oxopiperidin-1-yl)phenyl)pyrimidin-2-yl)amino)cyclohexane-1-carboxamide], the DC50 is < 500 nM.
Still for that read-out and setting: with `O=C1CCC(Nc2ccc(N3CCC(N4CCC(C(=O)N[C@H]5CC[C@H](Nc6ncc(F)c(-c7cccc(-c8ccccc8)c7)n6)CC5)CC4)C(F)C3)c(F)c2)C(=O)N1` (stereo partly drawn) [Compound 656, N-((1r,4r)-4-((4-([1,1′-biphenyl]-3-yl)-5-fluoropyrimidin-2-yl)amino)cyclohexyl)-1′-(4-((2,6-dioxopiperidin-3-yl)amino)-2-fluorophenyl)-3′-fluoro-[1,4′-bipiperidine]-4-carboxamide] the figure was < 500 nM.
Same read-out and setting: for `O=C1CC[C@H](Nc2ccc(C3CCN([C@H]4CC[C@H](NC(=O)[C@H]5CC[C@H](Nc6ncc(F)c(-c7cccc(-n8ccccc8=O)c7)n6)CC5)CC4)CC3)c(F)c2)C(=O)N1` (single isomer, unassigned) [Compound 434] the value was < 500 nM; for `O=C1CCC(Nc2ccc(N3CCC(N4CCC(C(=O)NC5CCC(Nc6ncc(F)c(-c7cccc(-c8ccc[nH]c8=O)c7)n6)CC5)CC4)CC3)c(F)c2)C(=O)N1` [Compound 702, trans-1′-(4-(((S)-2,6-dioxopiperidin-3-yl)amino)-2-fluorophenyl)-N-((1r,4r)-4-((5-fluoro-4-(3-(2-oxo-1,2-dihydropyridin-3-yl)phenyl)pyrimidin-2-yl)amino)cyclohexyl)-[1,4′-bipiperidine]-4-carboxamide], < 500 nM; for `O=C1CCC(Nc2ccc(C3CCN(C4CCN(C(=O)O[C@H]5CC[C@H](Nc6ncc(F)c(-c7cccc(-n8ccccc8=O)c7)n6)CC5)CC4)CC3)c(F)c2)C(=O)N1` (stereo partly drawn) [Compound 474, trans-4-((5-fluoro-4-(3-(2-oxopyridin-1 (2H)-yl)phenyl)pyrimidin-2-yl)amino)cyclohexyl 4-(4-((2,6-dioxopiperidin-3-yl)amino)-2-fluorophenyl)-[1,4′-bipiperidine]-1′-carboxylate], < 500 nM.
With `Cn1nc(C2CCC(=O)NC2=O)c2ccc(N3CCN(CC4CCN(C(=O)O[C@H]5CC[C@H](Nc6ncc(F)c(-c7cccc(-c8ccccc8)c7)n6)CC5)CC4)CC3)cc21` (stereo partly drawn) [Compound 643, trans-4-((4-([1,1′-biphenyl]-3-yl)-5-fluoropyrimidin-2-yl)amino)cyclohexyl 4-((4-(3-(2,6-dioxopiperidin-3-yl)-1-methyl-1H-indazol-6-yl)piperazin-1-yl)methyl)piperidine-1-carboxylate], the DC50 was < 500 nM.
Take `Cn1nc(N2CCC(=O)NC2=O)c2ccc(C3CCN(CC4(O)CCN(C(=O)O[C@H]5CC[C@H](Nc6ncc(F)c(-c7cccc(-c8ccccc8)c7)n6)CC5)CC4)CC3)cc21` [Compound 635, trans-4-((4-([1,1′-biphenyl]-3-yl)-5-fluoropyrimidin-2-yl)amino)cyclohexyl 4-((4-(3-(2,4-dioxotetrahydropyrimidin-1 (2H)-yl)-1-methyl-1H-indazol-6-yl)piperidin-1-yl)methyl)-4-hydroxypiperidine-1-carboxylate]: the DC50 was < 500 nM.
Consider `O=C1CC[C@@H](Nc2ccc(N3CCN([C@H]4CC[C@H](C(=O)N[C@H]5CC[C@H](Nc6ncc(F)c(-c7cccc(N8CCCCC8=O)c7)n6)CC5)CC4)CC3)c(F)c2)C(=O)N1` (single isomer, unassigned) [Compound 445], for which the DC50 was < 500 nM.
Same read-out and setting: for `O=C1CCC(Nc2ccc(C3CCN([C@H]4CC[C@H](NC(=O)[C@H]5CC[C@H](Nc6ncc(F)c(-c7cccc(N8CCOCC8=O)c7)n6)CC5)CC4)CC3)c(F)c2)C(=O)N1` (stereo partly drawn) [Compound 547, trans-N-(trans-4-(4-(4-((2,6-dioxopiperidin-3-yl)amino)-2-fluorophenyl)piperidin-1-yl)cyclohexyl)-4-((5-fluoro-4-(3-(3-oxomorpholino)phenyl)pyrimidin-2-yl)amino)cyclohexane-1-carboxamide] the value was < 500 nM; for `O=C1CC[C@H](Nc2ccc(N3CCN(CC4(O)CCN(C(=O)[C@H]5CC[C@H](Nc6ncc(F)c(-c7cccc(-n8ccccc8=O)c7)n6)CC5)CC4)CC3)c(F)c2)C(=O)N1` (single isomer, unassigned) [Compound 423], < 500 nM.

Staying with this experiment, now noted: 24 hours incubation, MOLT-4, top concentration 10 micromolar; read-out: HiBIT-degradation MOLT4 PIP4k2C 24 hours DC50.
`Cn1c(=O)n(C2CCC(=O)NC2=O)c2ccc(C3CCN(CCN4CCC(C(=O)N5CCC(Nc6ncc(Cl)c(-c7cccc(-c8ccccc8)c7)n6)CC5)CC4)CC3)cc21` (stereo not drawn) [Compound 45, 3-[5-[1-[2-[4-[4-[[5-chloro-4-(3-phenylphenyl)pyrimidin-2-yl]amino]piperidine-1-carbonyl]-1-piperidyl]ethyl]-4-piperidyl]-3-methyl-2-oxo-benzimidazol-1-yl]piperidine-2,6-dione]: the DC50 is < 500 nM.
The same measure, in the same setting: for `O=C1CCC(n2c(=O)oc3cc(C4CCN(CC5CCN(C(=O)CN6CCC(Nc7ncc(F)c(-c8cccc(-c9ccccc9)c8)n7)CC6=O)CC5)CC4)ccc32)C(=O)N1` (stereo not drawn) [Compound 366, 3-(6-(1-((1-(2-(4-((4-([1,1′-biphenyl]-3-yl)-5-fluoropyrimidin-2-yl)amino)-2-oxopiperidin-1-yl)acetyl)piperidin-4-yl)methyl)piperidin-4-yl)-2-oxobenzo[d]oxazol-3 (2H)-yl)piperidine-2,6-dione] the value was < 500 nM; for `O=C1CCC(Nc2ccc(N3CCC(CN4CCN(CC(=O)N[C@H]5CC[C@H](Nc6ncc(F)c(-c7cccc(-n8ccccc8=O)c7)n6)CC5)CC4)CC3)c(F)c2)C(=O)N1` (stereo partly drawn) [Compound 327, trans-2-[4-[[1-[4-[(2,6-dioxo-3-piperidyl)amino]-2-fluoro-phenyl]-4-piperidyl]methyl]piperazin-1-yl]-N-[4-[[5-fluoro-4-[3-(2-oxo-1-pyridyl)phenyl]pyrimidin-2-yl]amino]cyclohexyl]acetamide], < 500 nM; for `Cn1c(=O)n(C2CCC(=O)NC2=O)c2ccc(C3CCN(CCC4CCN(C(=O)[C@@H]5CCC[C@H](Nc6ncc(F)c(-c7cccc(-n8ccccc8=O)c7)n6)C5)CC4)CC3)cc21` (stereo partly drawn) [Compound 335, 3-(5-(1-(2-(1-((1R,3S)-3-((5-fluoro-4-(3-(2-oxopyridin-1(2H)-yl)phenyl)pyrimidin-2-yl)amino)cyclohexane-1-carbonyl)piperidin-4-yl)ethyl)piperidin-4-yl)-3-methyl-2-oxo-2,3-dihydro-1H-benzo[d]imidazol-1-yl)piperidine-2,6-dione], < 500 nM.
On to `O=C1CCC(n2c(=O)oc3cc(C4CCN(CC5CCN(CC(=O)N6CCC(Nc7ncc(Cl)c(-c8cccc(-c9ccc(F)cc9)c8)n7)CC6)CC5)CC4)ccc32)C(=O)N1` (stereo not drawn) [Compound 294, 3-(6-(1-((1-(2-(4-((5-chloro-4-(4′-fluoro-[1,1′-biphenyl]-3-yl)pyrimidin-2-yl)amino)piperidin-1-yl)-2-oxoethyl)piperidin-4-yl)methyl)piperidin-4-yl)-2-oxobenzo[d]oxazol-3 (2H)-yl)piperidine-2,6-dione], for which the DC50 was < 500 nM.
On the same count and under the same terms, for `O=C1CCC(Nc2ccc(C3CCN(CCC4CCN(C(=O)[C@H]5CCC[C@@H](Nc6ncc(F)c(-c7cccc(-n8ccccc8=O)c7)n6)C5)CC4)CC3)c(F)c2)C(=O)N1` (stereo partly drawn) [Compound 309, 3-((3-fluoro-4-(1-(2-(1-((1S,3R)-3-((5-fluoro-4-(3-(2-oxopyridin-1(2H)-yl)phenyl)pyrimidin-2-yl)amino)cyclohexane-1-carbonyl)piperidin-4-yl)ethyl)piperidin-4-yl)phenyl)amino)piperidine-2,6-dione] the value was > 5000 nM; for `Cn1c(=O)n(C2CCC(=O)NC2=O)c2ccc(C3CCN(CC4CCN(CC(=O)N[C@H]5CC[C@H](Nc6ncc(F)c(-c7cccc(-n8ccccc8=O)c7)n6)CC5)CC4)CC3)cc21` (stereo partly drawn) [Compound 301, trans-2-(4-((4-(1-(2,6-dioxopiperidin-3-yl)-3-methyl-2-oxo-2,3-dihydro-1H-benzo[d]imidazol-5-yl)piperidin-1-yl)methyl)piperidin-1-yl)-N-(4-((5-fluoro-4-(3-(2-oxopyridin-1(2H)-yl)phenyl)pyrimidin-2-yl)amino)cyclohexyl)acetamide], < 500 nM; for `Cn1c(=O)n(C2CCC(=O)NC2=O)c2ccc(C3CCN(CC4CCN(CC(=O)N5CCC(Nc6ncc(F)c(-c7cccc(-n8ccccc8=O)c7)n6)CC5)CC4)CC3)cc21` (stereo not drawn) [Compound 312, 3-(5-(1-((1-(2-(4-((5-fluoro-4-(3-(2-oxopyridin-1(2H)-yl)phenyl)pyrimidin-2-yl)amino)piperidin-1-yl)-2-oxoethyl)piperidin-4-yl)methyl)piperidin-4-yl)-3-methyl-2-oxo-2,3-dihydro-1H-benzo[d]imidazol-1-yl)piperidine-2,6-dione], < 500 nM.
